According to patent US20240041042A1, “1-(PYRIDYL)-5-AZINYLPYRAZOLE DERIVATIVES, AND THEIR USE FOR CONTROL OF UNDESIRED PLANT GROWTH” (Bayer Aktiengesellschaft, priority 2020, published 2024):
Like-named read-outs stand apart in the source and are kept apart here.

Experiments:
Assay type in all cases: in vivo
[1] = test system: Amaranthus retroflexus (AMARE); test: Pre-emergence herbicidal action against AMARE; details: visual scoring after about 3 weeks vs untreated controls
Outline: (§1)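 Read-out is visual percent damage relative to untreated pots, with 100% meaning dead plants and 0% meaning no difference, assessed roughly three weeks after treatment. Compounds were applied pre-emergence to the covering soil at up to 320 g/ha.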

[2] = test system: Echinochloa crus-galli (ECHCG); test: Pre-emergence herbicidal action against ECHCG; details: dosage 320 g/ha
Outline: as §1

[3] = test system: Matricaria inodora (MATIN); test: Pre-emergence herbicidal action against MATIN
Outline: as §1

[4] = test system: Pharbitis purpurea (PHBPU); test: Pre-emergence herbicidal action against PHBPU
Outline: as §1

[5] = test system: Polygonum convolvulus (POLCO); test: Pre-emergence herbicidal action against POLCO
Outline: as §1

[6] = test system: Verconica persica (VERPE); test: Pre-emergence herbicidal action against VERPE; details: dosage 320 g/ha
Outline: as §1

Viola tricolor (VIOTR) [7] = test: Pre-emergence herbicidal action against VIOTR
Outline: as §1

[8] = test system: Triticum aestivum (TRZAS); details: pre-emergence, crop plant compatibility, in comparison to untreated controls
Outline: (§2)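 Scoring: visual, % of untreated control, about 3 weeks after a pre-emergence application to the soil surface. Application used WP or EC formulations diluted in water with 0.5% additive at 600 l/ha; dosage levels are marked by suffixes a, b and c.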

[9] = test system: Pharbitis purpurea (PHBPU); test: Post-emergence herbicidal action against PHBPU
Outline: (§3)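 Values are percent visual activity (0% like control, 100% plants dead) after about 3 weeks in the greenhouse. Treatment: post-emergence spray at one-leaf stage, 600 l/ha spray volume, 0.5% additive, doses 320 g/ha or lower.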

Setaria viridis (SETVI) [10] = test: Post-emergence herbicidal action against SETVI
Outline: as §3

[11] = test system: Verconica persica (VERPE); test: Post-emergence herbicidal action against VERPE
Outline: as §3

Oryza sativa (ORYSA) [12] = details: crop plant compatibility, effect in comparison to untreated controls
Outline: (§4)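 Test crops were treated 2 to 3 weeks after sowing, once they reached one leaf, by spraying compound in water with 0.5% additive at 600 l/ha. Visual scoring compared them with untreated controls roughly 3 weeks on, and appendices a, b and c denote different doses.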

[13] = test system: Triticum aestivum (TRZAS); details: crop plant compatibility, effect vs untreated controls
Outline: as §4

[14] = test system: Abutilon theophrasti (ABUTH); test: Pre-emergence herbicidal action against ABUTH; details: Dosage column 320 g/ha (title prints 3200 g/ha); scored visually after about 3 weeks; 100% = plants have died
Outline: as §1

[15] = test system: Alopecurus myosuroides (ALOMY); test: Pre-emergence herbicidal action against ALOMY; details: 320 g/ha; scored visually after about 3 weeks; 100% = plants have died
Outline: as §1

Avena fatua (AVEFA) [16] = test: Pre-emergence herbicidal action against AVEFA; details: 320 g/ha, visual scoring after about 3 weeks vs untreated controls
Outline: as §1

Lolium rigidum (LOLRI) [17] = test: Pre-emergence herbicidal action against LOLRI; details: dosage 320 g/ha
Outline: as §1

Setaria viridis (SETVI) [18] = test: Pre-emergence herbicidal action against SETVI
Outline: as §1

Oryza sativa (ORYSA) [19] = details: pre-emergence, 80 g/ha, crop plant compatibility, in comparison to untreated controls
Outline: as §2

Zea mays (ZEAMX) [20] = details: pre-emergence, 80 g/ha, crop plant compatibility, in comparison to untreated controls
Outline: as §2

[21] = test system: Alopecurus myosuroides (ALOMY); test: Post-emergence herbicidal action against ALOMY; details: 320 g/ha, visual rating about 3 weeks after treatment vs untreated controls (100% = plants have died, 0% = like control plants)
Outline: as §3

[22] = test system: Amaranthus retroflexus (AMARE); test: Post-emergence herbicidal action against AMARE
Outline: as §3

[23] = test system: Echinochloa crus-galli (ECHCG); test: Post-emergence herbicidal action against ECHCG
Outline: as §3

[24] = test system: Polygonum convolvulus (POLCO); test: Post-emergence herbicidal action against POLCO
Outline: as §3

Zea mays (ZEAMX) [25] = details: crop plant compatibility, 80 g/ha, effect vs untreated controls
Outline: as §4

[26] = test system: Abutilon theophrasti (ABUTH); test: Post-emergence herbicidal action against ABUTH; details: visual rating about 3 weeks after treatment vs untreated controls (100% = plants have died, 0% = like control plants)
Outline: as §3

Avena fatua (AVEFA) [27] = test: Post-emergence herbicidal action against AVEFA; details: 320 g/ha, visual rating about 3 weeks after treatment
Outline: as §3

Lolium rigidum (LOLRI) [28] = test: Post-emergence herbicidal action against LOLRI; details: dosage 320 g/ha
Outline: as §3

[29] = test system: Matricaria inodora (MATIN); test: Post-emergence herbicidal action against MATIN; details: dosage 320 g/ha
Outline: as §3

Viola tricolor (VIOTR) [30] = test: Post-emergence herbicidal action against VIOTR
Outline: as §3

[31] = 80 g/ha, visual rating about 3 weeks after treatment vs untreated controls (100% = plants have died, 0% = like control plants)
[32] = 320 g/ha, visual rating about 3 weeks after treatment

Row | Pre-emergence action against TRZAS in % ([8]; 80 g/ha) | Post-emergence action against ORYSA in % (Oryza sativa (ORYSA) [12]; 80 g/ha) | Post-emergence action against TRZAS in % ([13]; 80 g/ha) | Structure (SMILES) | Pre-emergence action against AMARE in % ([1]; 320 g/ha) | Pre-emergence action against ECHCG in % [2] | Pre-emergence action against MATIN in % ([3]; dosage 320 g/ha) | Pre-emergence action against PHBPU in % ([4]; dosage 320 g/ha) | Pre-emergence action against POLCO in % ([5]; dosage 320 g/ha) | Pre-emergence action against VIOTR in % (Viola tricolor (VIOTR) [7]; 320 g/ha, Viola tricolor) | Pre-emergence action against VIOTR in % (Viola tricolor (VIOTR) [7]; dosage 80 g/ha) | Post-emergence action against PHBPU in % ([9]; dosage 320 g/ha) | Post-emergence action against SETVI in % (Setaria viridis (SETVI) [10]; dosage 320 g/ha) | Post-emergence action against VERPE in % ([11]; 320 g/ha, VERPE) | Pre-emergence action against ALOMY [15] | Pre-emergence action against LOLRI in % (Lolium rigidum (LOLRI) [17]) | Pre-emergence action against SETVI in % (Setaria viridis (SETVI) [18]; dosage 320 g/ha) | Post-emergence action against AMARE in % [22, 32] | Post-emergence action against ECHCG in % ([23]; dosage 320 g/ha) | Post-emergence action against POLCO in % ([24]; dosage 320 g/ha) | Post-emergence action against LOLRI in % (Lolium rigidum (LOLRI) [28]) | other results
1 | 20% | 0% | 20% | COC(=O)CCOC(=O)COc1nn(-c2ncccc2C(F)(F)F)c(-c2cncc(F)c2)c1Br [Example I-160] | 80% | 90% | 80% | 90% | 90% | 100% | 90% | 90% | 80% | 90% |  |  |  |  |  |  |  | Pre-emergence action against PHBPU in % ([4]; dosage 80 g/ha): 80%; Pre-emergence action against VERPE in % [6]: 90%; Post-emergence action against VERPE in % ([11]; dosage 80 g/ha): 80%
2 |  | 0% | 0% | O=C(O)C1CCCN1C(=O)COc1nn(-c2ccccn2)c(-c2ccc(F)nc2)c1Br (centres unmarked) [Example I-111] | 100% | 100% | 80% |  | 100% | 100% | 80% |  |  |  | 90% | 100% | 100% | 90% | 90% | 80% |  | Pre-emergence action against ABUTH [14]: 80%; Pre-emergence action against AMARE in % ([1]; 80 g/ha): 90%; Pre-emergence action against AVEFA in % (Avena fatua (AVEFA) [16]): 80%; Pre-emergence action against POLCO in % ([5]; dosage 80 g/ha): 80%; Pre-emergence action against SETVI in % (Setaria viridis (SETVI) [18]; dosage 80 g/ha): 90%; Pre-emergence action against VERPE in % [6]: 90%; Pre-emergence action against ORYSA in % (Oryza sativa (ORYSA) [19]): 0%; Pre-emergence action against ZEAMX in % (Zea mays (ZEAMX) [20]): 0%; Post-emergence action against ALOMY in % [21]: 100%; Post-emergence action against AMARE in % [22, 31]: 80%; Post-emergence action against ORYSA in % (Oryza sativa (ORYSA) [12]; 320 g/ha): 0%
3 | 0% | 10% | 0% | COCCOC(=O)COc1nn(-c2cccc(C)n2)c(-c2ccc(F)nc2)c1Br [Example I-277] | 80% | 80% |  | 80% |  |  |  | 80% |  | 80% |  | 90% | 80% |  | 80% |  |  | Post-emergence action against TRZAS in % ([13]; 320 g/ha): 20%; Post-emergence action against ZEAMX in % (Zea mays (ZEAMX) [25]): 10%
4 | 0% | 0% |  | O=C(O)CSc1nn(-c2ccccn2)c(-c2cncc(F)c2)c1Cl [Example I-217] | 100% | 90% | 90% | 90% | 80% | 90% |  |  | 90% |  |  | 100% | 90% | 90% | 90% | 80% | 80% | Pre-emergence action against AMARE in % ([1]; 80 g/ha): 80%; Pre-emergence action against MATIN in % ([3]; dosage 80 g/ha): 80%; Post-emergence action against ABUTH in % ([26]; 80 g/ha): 80%; Post-emergence action against ABUTH in % ([26]; 320 g/ha): 90%; Post-emergence action against AMARE in % [22, 31]: 90%; Post-emergence action against AVEFA in % (Avena fatua (AVEFA) [27]): 90%; Post-emergence action against ECHCG in % ([23]; dosage 80 g/ha): 90%; Post-emergence action against MATIN in % [29]: 80%; Post-emergence action against POLCO in % ([24]; dosage 80 g/ha): 80%; Post-emergence action against SETVI in % (Setaria viridis (SETVI) [10]; dosage 80 g/ha): 80%; Post-emergence action against VIOTR in % (Viola tricolor (VIOTR) [30]; 80 g/ha): 80%; Post-emergence action against VIOTR in % (Viola tricolor (VIOTR) [30]; 320 g/ha): 90%
5 | 0% | 10% | 0% | COC(=O)CCOC(=O)COc1nn(-c2cccc(C)n2)c(-c2ccc(F)nc2)c1Cl [Example I-276] | 90% | 90% | 80% | 80% | 80% |  |  | 90% | 90% | 90% | 80% | 100% | 90% | 90% | 80% |  | 80% | Pre-emergence action against TRZAS in % ([8]; 320 g/ha): 0%; Post-emergence action against MATIN in % [29]: 80%; Post-emergence action against PHBPU in % ([9]; dosage 80 g/ha): 80%; Post-emergence action against VERPE in % ([11]; dosage 80 g/ha): 80%; Post-emergence action against TRZAS in % ([13]; 320 g/ha): 20%
6 |  | 10% |  | O=C(O)COc1nn(-c2ncccc2C(F)(F)F)c(-c2ccc(F)nc2)c1Br [Example I-310] | 100% |  |  |  | 90% | 100% | 90% |  | 90% | 80% | 100% | 100% |  | 80% | 90% | 80% | 90% | Pre-emergence action against ABUTH [14]: 80%; Pre-emergence action against AMARE in % ([1]; 80 g/ha): 80%; Pre-emergence action against AVEFA in % (Avena fatua (AVEFA) [16]): 90%; Pre-emergence action against ORYSA in % (Oryza sativa (ORYSA) [19]): 0%; Pre-emergence action against ZEAMX in % (Zea mays (ZEAMX) [20]): 0%; Post-emergence action against ALOMY in % [21]: 90%; Post-emergence action against AMARE in % [22, 31]: 80%; Post-emergence action against AVEFA in % (Avena fatua (AVEFA) [27]): 100%; Post-emergence action against POLCO in % ([24]; dosage 80 g/ha): 80%; Post-emergence action against VIOTR in % (Viola tricolor (VIOTR) [30]; 80 g/ha): 80%; Post-emergence action against VIOTR in % (Viola tricolor (VIOTR) [30]; 320 g/ha): 90%; Post-emergence action against ORYSA in % (Oryza sativa (ORYSA) [12]; 320 g/ha): 20%; Post-emergence action against ZEAMX in % (Zea mays (ZEAMX) [25]): 0%
7 | 0% | 0% |  | CCOC(=O)COc1nn(-c2ccccn2)c(-c2ccc(F)nc2)c1[N+](=O)[O-] [Example I-359] | 90% | 80% | 90% |  | 80% | 100% |  | 80% |  |  |  | 80% | 100% | 90% | 80% | 80% | 80% | Pre-emergence action against SETVI in % (Setaria viridis (SETVI) [18]; dosage 80 g/ha): 90%; Pre-emergence action against ZEAMX in % (Zea mays (ZEAMX) [20]): 10%; Post-emergence action against ABUTH in % ([26]; 320 g/ha): 80%; Post-emergence action against ALOMY in % [21]: 90%; Post-emergence action against AVEFA in % (Avena fatua (AVEFA) [27]): 90%; Post-emergence action against ORYSA in % (Oryza sativa (ORYSA) [12]; 320 g/ha): 0%
